Assays:
K-Ras G12C = K-Ras G12C (Homo sapiens (Human), UniProt P01116+P62937, G12C); assay: Ras-Raf (BRAF RBD) disruption / FRET / MOA assay, KRAS G12C; assay type: biochemical; conditions: KRAS G12C; Ras-Raf disruption/FRET/MOA assay; read-out: IC50* KRAS G12C FRET data
In short: (§1)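 Ras:RAF disruption was scored as a fall in TR-FRET ratio relative to DMSO. Compound ranged in 3-fold steps over 10 points from 30 μM final; incubation ran 3 h at 25° C, detection antibodies a further 1.5 h. Reported as IC50.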

NRAS G12C = NRAS G12C (Homo sapiens (Human), UniProt P01111+P62937, G12C); assay: Ras-Raf (BRAF RBD) disruption / FRET / MOA assay, NRAS G12C; assay type: biochemical; conditions: read-out: IC50* NRAS G12C FRET data
NRAS G12C, sequence (P01111 whole entry G12C): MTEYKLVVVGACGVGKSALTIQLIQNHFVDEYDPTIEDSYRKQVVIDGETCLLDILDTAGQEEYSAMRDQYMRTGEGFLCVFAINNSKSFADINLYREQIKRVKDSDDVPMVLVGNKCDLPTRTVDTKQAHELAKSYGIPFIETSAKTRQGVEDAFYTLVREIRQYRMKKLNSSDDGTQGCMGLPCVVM
NRAS G12C, sequence (P62937 whole entry): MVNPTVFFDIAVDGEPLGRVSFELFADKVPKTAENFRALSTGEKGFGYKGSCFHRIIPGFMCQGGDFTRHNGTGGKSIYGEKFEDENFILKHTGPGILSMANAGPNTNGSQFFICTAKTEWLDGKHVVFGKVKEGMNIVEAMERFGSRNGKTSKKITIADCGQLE
In short: as §1

KRAS G12V = KRAS G12V (Homo sapiens (Human), UniProt P01116+P62937, G12V); assay: Ras-Raf (BRAF RBD) disruption / FRET / MOA assay, KRAS G12V; assay type: biochemical; conditions: read-out: IC50* KRAS G12V FRET data
KRAS G12V, sequence (P01116-2 other isoform, or with tags, fused parts or gaps G12V): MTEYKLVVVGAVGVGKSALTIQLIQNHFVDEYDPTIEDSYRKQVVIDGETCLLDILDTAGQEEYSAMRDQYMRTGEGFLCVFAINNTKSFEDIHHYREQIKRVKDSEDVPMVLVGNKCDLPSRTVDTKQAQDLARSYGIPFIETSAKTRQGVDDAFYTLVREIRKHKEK
KRAS G12V, sequence (P62937 whole entry): as the sequence (P62937 whole entry) above
In short: as §1

[1] = test system: NCI-H358 cells (K-Ras G12C); assay: Potency assay: pERK in NCI-H358 cells; assay type: cell-based, human; conditions: Homo sapiens, NCI-H358; H358 KRAS G12C; read-out: pERK EC50
In short: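 4 h cpd, 37 °C; 10-pt 3-fold series, 10 mM DMSO top stock, duplicates. Readout pERK: AlphaLISA SureFire Ultra or In-Cell Western (IR-800CW secondary, DRAQ5 DNA stain). IC50, 4-PL fit vs log conc.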

KRAS G12D = KRAS G12D (Homo sapiens (Human), UniProt P01116+P62937, G12D); assay: Ras-Raf (BRAF RBD) disruption / FRET / MOA assay, KRAS G12D; assay type: biochemical; conditions: Ras-Raf disruption/FRET/MOA assay; class symbols; read-out: KRAS G12D FRET data IC50
KRAS G12D, sequence (P01116-2 other isoform, or with tags, fused parts or gaps G12D): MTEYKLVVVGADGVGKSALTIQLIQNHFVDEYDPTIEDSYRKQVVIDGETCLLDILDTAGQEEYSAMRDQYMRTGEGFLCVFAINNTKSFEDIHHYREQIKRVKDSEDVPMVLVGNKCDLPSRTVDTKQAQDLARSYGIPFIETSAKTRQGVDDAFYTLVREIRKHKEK
KRAS G12D, sequence (P62937 whole entry): as the sequence (P62937 whole entry) above
In short: as §1

K-Ras G13C = K-Ras G13C (Homo sapiens (Human), UniProt P01116+P62937, G13C); assay: Ras-Raf (BRAF RBD) disruption / FRET / MOA assay, KRAS G13C; assay type: biochemical; conditions: KRAS G13C; Ras-Raf disruption/FRET/MOA assay; read-out: IC50* KRAS G13C FRET data
K-Ras G13C, sequence (P01116-2 other isoform, or with tags, fused parts or gaps G13C): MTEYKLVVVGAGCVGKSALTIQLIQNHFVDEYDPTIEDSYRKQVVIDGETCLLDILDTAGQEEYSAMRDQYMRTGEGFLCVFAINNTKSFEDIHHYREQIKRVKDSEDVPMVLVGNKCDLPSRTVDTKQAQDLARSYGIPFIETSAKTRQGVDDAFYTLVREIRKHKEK
K-Ras G13C, sequence (P62937 whole entry): as the sequence (P62937 whole entry) above
In short: as §1

KRAS G12S = KRAS G12S (Homo sapiens (Human), UniProt P01116+P62937, G12S); assay: Ras-Raf (BRAF RBD) disruption / FRET / MOA assay, KRAS G12S; assay type: biochemical; conditions: Ras-Raf disruption/FRET/MOA assay; class symbols; read-out: KRAS G12S FRET data IC50
KRAS G12S, sequence (P01116-2 other isoform, or with tags, fused parts or gaps G12S): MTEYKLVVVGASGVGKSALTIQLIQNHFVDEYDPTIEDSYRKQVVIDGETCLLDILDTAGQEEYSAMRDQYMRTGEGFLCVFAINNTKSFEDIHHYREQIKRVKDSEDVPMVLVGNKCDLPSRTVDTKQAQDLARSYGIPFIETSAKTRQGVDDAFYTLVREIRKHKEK
KRAS G12S, sequence (P62937 whole entry): as the sequence (P62937 whole entry) above
In short: as §1

NCI-H358 (K-Ras G12C) = assay: CellTiter-Glo cell viability assay, NCI-H358; assay type: cell-based, human; conditions: Homo sapiens, NCI-H358, 120 h, NCI-H358, 5-day treatment; class symbols; read-out: Additional H358 Cell Viability assay data (K-Ras G12C, IC50)
In short: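 Viability measured by CellTiter-Glo luminescence on day 5 following direct addition of compound to plated cells. Values expressed as percent of mean DMSO signal; curves fitted with a four-parameter logistic model.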

KRAS G13D = KRAS G13D (Homo sapiens (Human), UniProt P01116+P62937, G13D); assay: Ras-Raf (BRAF RBD) disruption / FRET / MOA assay, KRAS G13D; assay type: biochemical; conditions: read-out: IC50* KRAS G13D FRET data
KRAS G13D, sequence (P01116-2 other isoform, or with tags, fused parts or gaps G13D): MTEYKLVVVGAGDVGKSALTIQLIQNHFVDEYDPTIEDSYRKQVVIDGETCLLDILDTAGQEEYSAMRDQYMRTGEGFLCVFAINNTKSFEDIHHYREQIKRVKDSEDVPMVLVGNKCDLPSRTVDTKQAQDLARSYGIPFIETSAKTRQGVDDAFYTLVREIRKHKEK
KRAS G13D, sequence (P62937 whole entry): as the sequence (P62937 whole entry) above
In short: as §1

KRAS WT = KRAS WT (Homo sapiens (Human), UniProt P01116+P62937); assay: Ras-Raf (BRAF RBD) disruption / FRET / MOA assay, KRAS WT; assay type: biochemical; conditions: read-out: IC50* KRAS WT FRET data
KRAS WT, sequence (P01116-2 other isoform, or with tags, fused parts or gaps): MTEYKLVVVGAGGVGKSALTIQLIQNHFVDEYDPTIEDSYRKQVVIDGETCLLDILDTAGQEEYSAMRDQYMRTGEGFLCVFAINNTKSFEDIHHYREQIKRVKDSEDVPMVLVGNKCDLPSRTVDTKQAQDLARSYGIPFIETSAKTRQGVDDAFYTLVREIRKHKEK
KRAS WT, sequence (P62937 whole entry): as the sequence (P62937 whole entry) above
In short: as §1

K-Ras G12C, sequence (P01116-2 other isoform, or with tags, fused parts or gaps G12C): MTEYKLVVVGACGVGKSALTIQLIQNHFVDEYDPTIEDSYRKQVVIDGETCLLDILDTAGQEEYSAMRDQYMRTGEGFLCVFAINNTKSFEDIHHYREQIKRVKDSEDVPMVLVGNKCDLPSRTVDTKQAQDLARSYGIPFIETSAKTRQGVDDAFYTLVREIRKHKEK
K-Ras G12C, sequence (P62937 whole entry): as the sequence (P62937 whole entry) above

Row | Structure (SMILES) | IC50 (K-Ras G12C) | IC50 (NRAS G12C) | IC50 (KRAS G12V) | EC50 [1] | IC50 (KRAS G12D) | IC50 (K-Ras G13C) | IC50 (KRAS G12S) | IC50 (NCI-H358 (K-Ras G12C)) | IC50 (KRAS G13D) | IC50 (KRAS WT)
1 | CCn1c(-c2cccnc2[C@H](C)OC)c2c3cc(ccc31)-c1cc(O)cc(c1)C[C@H](NC(=O)[C@H](C(C)C)N1CC[C@@]3(CCN(C(=O)/C=C/CN(C)C)C3)C1=O)C(=O)N1CCC[C@H](N1)C(=O)OCC(C)(C)C2 (atropisomer, axis not shown) [Example A269] | 10 to 100 nM | 10 to 100 nM | 100 to 1000 nM | < 5000 nM | 100 to 1000 nM | 100 to 1000 nM | 100 to 1000 nM | 10 to 100 nM | 100 to 1000 nM | 100 to 1000 nM
2 | CCn1c(-c2cccnc2[C@H](C)OC)c2c3cc(ccc31)-c1cc(O)cc(c1)C[C@H](NC(=O)[C@H](C(C)C)N1CCC3(CN(C(=O)/C=C/CN(C)C)C3)C1=O)C(=O)N1CCC[C@H](N1)C(=O)OCC(C)(C)C2 (atropisomer, axis not shown) [Example A270] | < 10 nM | < 10 nM | 100 to 1000 nM | < 5000 nM | 100 to 1000 nM | < 10 nM | 10 to 100 nM | 10 to 100 nM | 10 to 100 nM | 10 to 100 nM
3 | C/C=C/S(=O)(=O)N1CC[C@H](C(=O)N(C)[C@H](C(=O)N[C@H]2Cc3cc(O)cc(c3)-c3ccc4c(c3)c(c(-c3cccnc3[C@H](C)OC)n4CC)CC(C)(C)COC(=O)[C@@H]3CCCN(N3)C2=O)C(C)C)C1 (atropisomer, axis not shown) [Example A280] | 10 to 100 nM | 100 to 1000 nM | 100 to 1000 nM | < 5000 nM | 1000 to 10000 nM | 10 to 100 nM | 100 to 1000 nM | 10 to 100 nM | 100 to 1000 nM | 10 to 100 nM
4 | CC#CC(=O)N1CC[C@H](C(=O)N(C)[C@H](C(=O)N[C@H]2Cc3nc(ns3)-c3ccc4c(c3)c(c(-c3cccnc3[C@H](C)OC)n4CC)CC(C)(C)COC(=O)[C@@H]3CCCN(N3)C2=O)C(C)C)C1 (atropisomer, axis not shown) [Example A289] | 1000 to 10000 nM | 1000 to 10000 nM | 1000 to 10000 nM | < 5000 nM | > 10000 nM | 1000 to 10000 nM | > 10000 nM | 100 to 1000 nM | > 10000 nM | > 10000 nM
5 | CCn1c(-c2cccnc2[C@H](C)OC)c2c3cc(ccc31)-c1csc(n1)C[C@H](NC(=O)[C@H](C(C)C)N(C)C(=O)[C@H]1CCN(C(=O)C#CC(C)(C)N(C)C)C1)C(=O)N1CCC[C@H](N1)C(=O)OCC(C)(C)C2 (atropisomer, axis not shown) [Example A291] | < 10 nM | 10 to 100 nM | 1000 to 10000 nM | < 5000 nM | > 10000 nM | 1000 to 10000 nM | 1000 to 10000 nM | < 10 nM | > 10000 nM | 1000 to 10000 nM
6 | CCn1c(-c2cccnc2[C@H](C)OC)c2c3cc(ccc31)-c1cc(O)cc(c1)C[C@H](NC(=O)[C@H](C(C)C)N(C)C(=O)[C@H]1CCN(C(=O)C#CC(C)(C)N(C)C)C1)C(=O)N1CCC[C@H](N1)C(=O)OCC(C)(C)C2 (atropisomer, axis not shown) [Example A292] | < 10 nM | < 10 nM | 10 to 100 nM | < 5000 nM | 100 to 1000 nM | < 10 nM | 10 to 100 nM | < 10 nM | 100 to 1000 nM | 100 to 1000 nM
7 | C=CC(=O)N1CCC2(CC1)CCN([C@H](C(=O)N[C@H]1Cc3cc(O)cc(c3)-c3ccc4c(c3)c(c(-c3cccnc3[C@H](C)OC)n4CC)CC(C)(C)COC(=O)[C@@H]3CCCN(N3)C1=O)C(C)C)C2=O (atropisomer, axis not shown) [Example A296] | 10 to 100 nM | 10 to 100 nM | 100 to 1000 nM | < 5000 nM | 1000 to 10000 nM | 10 to 100 nM | 100 to 1000 nM | < 10 nM | 10 to 100 nM | 10 to 100 nM
